{
  "source": "patent EP3132692A1",
  "about": "“Compositions comprising small molecular inhibitors suitable to inhibit and stimulate signaling pathways in a manner leading to prevention of muscle atrophy” (priority 2015, dated 2017)",
  "key": {"myoblast C2C12 cells": {"tested_on": "myoblast C2C12 cells", "conditions": "100µM; low mitogen medium; cited from earlier work"}, "[1]": {"conditions": "via orange juice alongside 150 mL yogurt; cited from earlier work"}, "[2]": {"tested_on": "mice subjected to freeze injury (tibialis)", "conditions": "injections at 50mg/kg for six days; relative to control; cited from earlier work"}, "UGT enzymes": {"tested_on": "UGT enzymes", "conditions": "after absorption; cited from earlier work"}, "C. Elegans": {"tested_on": "C. Elegans", "conditions": "cited from earlier work"}, "[3]": {"target": "human DNA topoisomerase II (topo II)", "conditions": "cited from earlier work"}, "[4]": {"assay": "Body composition by dual energy x-ray absorptiometry (DEXA), efficacy study", "format": "in vivo, men", "description": "(§1) In the efficacy study, 18 resistance trained men with at least 5 years of experience in weight lifting voluntarily participated. Participants were divided in 3 equal groups; receiving placebo (hypromellose, 2 times a day), (-)-epicatechin ((EPI), 2x 150 mg a day) and (-)-epicatechin combined with hesperetin and myricetin ((E+H+M), 2x 150+100+50 mg a day). Maximally trained individuals were chosen as further muscle gains in such groups are usually minimal, even with dietary interventions. This is primarily explained due to a fact that such trained individuals reached so called \"natural genetic plateau\" where muscle tissue works within physiological optimum defined by the genetic blueprints, so even radical interventions (except anabolic steroids) and exercise regime cannot bring significant results. This was confirmed by participants as they had no means to achieve particularly better results over last few years of exercise. All subjects were asked to maintain the same caloric intake during 12 week study 5 days a week exercise. During 2 months study participants were taking 30 g of post exercise amino acid blend (whey, soy and casein protein) with following profile per 100 g: • Alanine 7.1g, arginine 9.2 g, aspartic acid 6.2 g, glutamic acid 21.5 g, glycine 12.2 g, histidine 1.1 g, isoleucine 6.9 g, leucine 11.1 g, methionine 0.3 g, phenylalanine 2.7 g, proline 11.2 g, serine 2.7 g, threonine 1.5 g, tyrosine 0.5 g and valine 5.8 g.\n(§2) Body composition was examined at the beginning and the end of study using dual energy x-ray absorptiometry - DEXA scans (DiscoveryTM by Hologic). Total body estimates of fat and non-bone lean tissue were determined according to company supplied algorithms. Muscle thickness for Vastus lateralis and Triceps brachii lateralis was examined at the beginning and the end of study by B-mode ultrasound imaging (Toshiba PowerVision 8000) as the distance between the subcutaneous adipose tissue and inter-muscular belly interface. Total Cretine Kinase as a marker of muscle damage was performed by VITROS® 4600 (Ortho Clinical Diagnostics) at the beginning and the end of study."}, "resistance trained men [5]": {"tested_on": "resistance trained men", "assay": "Strength measures: 1-repetition maximum (1-RM) bench press and squat, efficacy study", "format": "in vivo"}, "resistance trained men [6]": {"tested_on": "resistance trained men", "assay": "Total creatine kinase as marker of muscle damage, efficacy study", "format": "in vivo", "description": "as §1, with “During 2 months study participants were taking 30 g of post exercise amino acid blend (whey, soy and casein protein) with following profile per 100 g: • Alanine 7.1g, arginine 9.2 g, aspartic acid 6.2 g, glutamic acid 21.5 g, glycine 12.2 g, histidine 1.1 g, isoleucine 6.9 g, leucine 11.1 g, methionine 0.3 g, phenylalanine 2.7 g, proline 11.2 g, serine 2.7 g, threonine 1.5 g, tyrosine 0.5 g and valine 5.8 g.” left out\nBody composition was examined at the beginning and the end of study using dual energy x-ray absorptiometry - DEXA scans (DiscoveryTM by Hologic). Total body estimates of fat and non-bone lean tissue were determined according to company supplied algorithms. […]"}, "aged men": {"tested_on": "aged men", "conditions": "treatment for 7 days; cited from earlier work"}, "resistance trained men [7]": {"tested_on": "resistance trained men", "assay": "Muscle thickness by B-mode ultrasound imaging, efficacy study", "format": "in vivo", "description": "as §1, §2"}, "TGFβ-II receptor": {"target": "TGFβ-II receptor (Homo sapiens, UniProt P37173)", "sequence (P37173 23-567)": "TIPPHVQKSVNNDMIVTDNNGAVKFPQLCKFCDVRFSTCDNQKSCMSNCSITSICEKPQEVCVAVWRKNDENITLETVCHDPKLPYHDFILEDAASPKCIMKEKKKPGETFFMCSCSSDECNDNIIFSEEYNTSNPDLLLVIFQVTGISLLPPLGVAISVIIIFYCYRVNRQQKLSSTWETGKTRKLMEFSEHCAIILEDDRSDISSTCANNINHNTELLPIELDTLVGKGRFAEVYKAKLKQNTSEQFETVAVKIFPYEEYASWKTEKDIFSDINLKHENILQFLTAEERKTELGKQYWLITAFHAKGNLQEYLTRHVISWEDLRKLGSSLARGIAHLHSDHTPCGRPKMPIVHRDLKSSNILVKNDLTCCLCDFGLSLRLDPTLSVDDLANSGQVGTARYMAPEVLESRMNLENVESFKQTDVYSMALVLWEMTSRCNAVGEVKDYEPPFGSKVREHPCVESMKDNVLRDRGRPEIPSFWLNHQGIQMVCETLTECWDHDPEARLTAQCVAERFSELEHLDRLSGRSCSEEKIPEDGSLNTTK", "conditions": "100µM; cited from earlier work"}, "PDE4 isomer": {"tested_on": "PDE4 isomer", "conditions": "cited from earlier work"}, "PPARγ": {"target": "T1, PPARγ (Homo sapiens, UniProt P37231)", "T1 sequence (P37231 1-505)": "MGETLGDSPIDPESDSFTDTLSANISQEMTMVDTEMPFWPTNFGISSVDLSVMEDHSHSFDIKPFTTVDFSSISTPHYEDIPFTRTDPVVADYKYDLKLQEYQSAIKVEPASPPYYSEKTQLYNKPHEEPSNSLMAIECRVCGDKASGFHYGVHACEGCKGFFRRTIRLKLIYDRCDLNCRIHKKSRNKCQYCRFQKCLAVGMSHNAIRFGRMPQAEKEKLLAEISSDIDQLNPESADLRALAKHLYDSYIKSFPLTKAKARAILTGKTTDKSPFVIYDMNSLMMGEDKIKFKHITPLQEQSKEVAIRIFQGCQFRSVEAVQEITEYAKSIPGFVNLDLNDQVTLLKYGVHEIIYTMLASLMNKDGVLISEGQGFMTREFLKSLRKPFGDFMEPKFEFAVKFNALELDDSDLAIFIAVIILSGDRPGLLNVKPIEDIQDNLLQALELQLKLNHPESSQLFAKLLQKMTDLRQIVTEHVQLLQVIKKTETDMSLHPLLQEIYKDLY", "conditions": "cited from earlier work"}, "PPARα": {"target": "T2, PPARα (Homo sapiens, UniProt Q07869)", "T2 sequence (Q07869 1-468)": "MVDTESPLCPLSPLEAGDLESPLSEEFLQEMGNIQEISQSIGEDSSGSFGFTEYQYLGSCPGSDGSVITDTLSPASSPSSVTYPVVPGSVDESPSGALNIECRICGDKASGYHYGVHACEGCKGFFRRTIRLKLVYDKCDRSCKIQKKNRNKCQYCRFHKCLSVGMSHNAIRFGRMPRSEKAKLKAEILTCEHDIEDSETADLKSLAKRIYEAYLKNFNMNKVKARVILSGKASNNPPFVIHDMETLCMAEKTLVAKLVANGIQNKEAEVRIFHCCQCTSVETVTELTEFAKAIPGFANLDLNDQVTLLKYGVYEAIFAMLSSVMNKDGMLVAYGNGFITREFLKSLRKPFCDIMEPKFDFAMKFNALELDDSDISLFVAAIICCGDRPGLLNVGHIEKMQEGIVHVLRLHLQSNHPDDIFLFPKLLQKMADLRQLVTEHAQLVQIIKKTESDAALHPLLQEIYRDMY", "conditions": "cited from earlier work"}, "[8]": {"conditions": "BEGGINING of study, resistance trained men"}, "[9]": {"conditions": "END of 12 week study, EPI 2x 150 mg a day, E+H+M 2x 150+100+50 mg a day"}},
  "data": [
    {"smiles": "COc1ccc(C2CC(=O)c3c(O)cc(OC4OC(COC5OC(C)C(O)C(O)C5O)C(O)C(O)C4O)cc3O2)cc1O", "note": "(stereo not shown) [hesperidin, hesperetin-7-O-rutinoside]", "values": [
      {"measurement": "myocyte differentiation", "setting": "myoblast C2C12 cells", "result": "able to promote myocyte differentiation"},
      {"measurement": "reduction of Cmax of the main metabolite (hesperitin-7-O-glucuronide)", "setting": "[1]", "result": 29, "unit": "%"},
      {"measurement": "reduction of overall exposure (AUC) of the main metabolite", "setting": "[1]", "result": 27, "unit": "%"},
      {"measurement": "muscle regenerative capabilities", "setting": "[2]", "result": "significantly enhanced"},
      {"measurement": "found as hesperetin monoglucuronide", "setting": "UGT enzymes", "result": "up to 87%"},
      {"measurement": "found as sulphoglucuronides", "setting": "UGT enzymes", "result": 13, "unit": "%"}
    ]},
    {"smiles": "O=c1c(O)c(-c2cc(O)c(O)c(O)c2)oc2cc(O)cc(O)c12", "note": "[myricetin]", "values": [
      {"measurement": "prolongation of average lifespan", "setting": "C. Elegans; C. Elegans", "result": 18, "unit": "%"},
      {"measurement": "prolongation of maximal lifespan", "setting": "C. Elegans; C. Elegans", "result": 21.7, "unit": "%"},
      {"measurement": "increase of average lifespan", "setting": "C. Elegans; mev-1(kn1) mutants", "result": 16, "unit": "%"},
      {"measurement": "IC50", "setting": "[3]", "result": 27.5, "unit": "µM"}
    ]},
    {"smiles": "Oc1cc(O)c2c(c1)O[C@H](c1ccc(O)c(O)c1)[C@H](O)C2", "note": "[EPI, (-)-epicatechin]", "values": [
      {"measurement": "Body fat", "setting": "[4]; [8]", "result": "11.2 ± 5.3", "unit": "kg"},
      {"measurement": "Body mass", "setting": "[4]; [8]", "result": "93.2 ± 14.6", "unit": "kg"},
      {"measurement": "Lean body mass", "setting": "[4]; [8]", "result": "76.4 ± 5.8", "unit": "kg"},
      {"measurement": "Body fat", "setting": "[4]; [9]", "result": "9.1 ± 4.2", "unit": "kg"},
      {"measurement": "Body mass", "setting": "[4]; [9]", "result": "93.8 ± 10.5", "unit": "kg"},
      {"measurement": "Lean body mass", "setting": "[4]; [9]", "result": "77.2 ± 5.8", "unit": "kg"},
      {"measurement": "1- RM BENCH PRESS", "setting": "resistance trained men [5]; [8]", "result": "148±21"},
      {"measurement": "1-RM SQUAT", "setting": "resistance trained men [5]; [8]", "result": "153 ± 24", "unit": "kg"},
      {"measurement": "1-RM SQUAT", "setting": "resistance trained men [5]; [9]", "result": "170 ± 22", "unit": "kg"},
      {"measurement": "Total Creatine Kinase (CK reff range: 38-120 ng/ml)", "setting": "resistance trained men [6]; [8]", "result": "86 ± 24", "unit": "ng/mL"},
      {"measurement": "Total Creatine Kinase (CK reff range: 38-120 ng/ml)", "setting": "resistance trained men [6]; [9]", "result": "73 ± 16", "unit": "ng/mL"},
      {"measurement": "hand grip strength", "setting": "aged men", "result": "increases"},
      {"measurement": "ratio of plasma follistatin/myostatin", "setting": "aged men", "result": "increases"},
      {"measurement": "Triceps Brachii Lateralis thickness", "setting": "resistance trained men [7]; [8]", "result": "30.8±4.4", "unit": "mm"},
      {"measurement": "Vastus Lateralis thickness", "setting": "resistance trained men [7]; [8]", "result": "23.8±3.9", "unit": "mm"},
      {"measurement": "Triceps Brachii Lateralis thickness", "setting": "resistance trained men [7]; [9]", "result": "33.8±2.2", "unit": "mm"},
      {"measurement": "Vastus Lateralis thickness", "setting": "resistance trained men [7]; [9]", "result": "24.6±2.9", "unit": "mm"}
    ]},
    {"smiles": "COc1ccc(C2CC(=O)c3c(O)cc(O)cc3O2)cc1O", "note": "(stereo not shown) [hesperetin, 5,7,3'-trihydroxy-4'-methoxyflavanone]", "values": [
      {"measurement": "ability of a ligand to associate with the TGFβ-II receptor", "setting": "TGFβ-II receptor", "result": "approximately halve"},
      {"measurement": "IC50", "setting": "PDE4 isomer", "result": "28.2 ± 1.1", "unit": "µM"},
      {"measurement": "concentration range of concentration dependent stimulation of PPARγ activity", "setting": "PPARγ", "result": "20 to 160", "unit": "µM"},
      {"measurement": "concentration range of concentration dependent stimulation of PPARα activity", "setting": "PPARα", "result": "20 to 160", "unit": "µM"}
    ]}
  ]
}
